Reference: patent US20070154906A1, “Methods to identify therapeutic candidates” (Spirogen Ltd., priority 2005, published 2007)
pIC50: −log10 of the molar value.

Assays:
[1] = system: MS2 DNA fragment (MS2F and MS2R); test: DNase I footprinting on MS2 DNA fragment; format: binding; conditions: for footprint shape at position H (footnote 1) / footprint shape at position J (footnote 2): MS2 DNA fragment; for footprint shape at position H (footnote 1): site H; for footprint shape at position J (footnote 2): site J
Method: The sequence selectivity of the six PBD-pyrrole conjugates (GWL 77, GWL 78, GWL 79, GWL 80, GWL 81 and GWL 82) was evaluated by standard DNA footprinting on a fragment of MS2 as follows, in accordance with the technique described in Martin, Biochemistry (2005) 44:4135-4147.
The vast majority of footprint sites are common features in the binding profiles of all six conjugates, with only a small number of sites being footprinted by a subset of the family. Even more unexpectedly, no site is footprinted by only one molecule (in fact, the fewest number of conjugates that bind at any single site is four). The differential cleavage plot in FIG. 5 provides footprinting profiles at a supramaximal concentration color-coded for each conjugate which illustrates a striking degree of overlap. Although there is no conspicuous change in footprinting patterns as the number of pyrroles units in each conjugate increases, there are changes in two other features, namely, the apparent binding affinity and the width of the footprinted site. […] To simplify comparison between molecules, only the most significant footprint site (5′-^62[…]^70−3′/3′-[…]-5′) (SEQ ID NO:24) was selected for comparison. When the binding affinity of each molecule is compared to the relative number of pyrrole units it contains, a parabolic relationship is observed. By this method, GWL 80 (four pyrroles) appears to be the strongest binder with a DNase IC50 of around 30 nM. Conjugate GWL 79 (three pyrroles) and GWL 81 (five pyrroles) follow closely with affinities in the region of 30-100 nM. […] Finally, GWL 77 (one pyrrole) is a particularly weak footprinting molecule with an DNase IC50 of about, or in excess of, 10 μM.

[2] = system: K562 human chronic myeloid leukemia cells; test: In vitro cytotoxicity assay (MTT); format: cell-based; conditions: K562, one hour exposure, MTT after four days
Method: In one aspect of this test, K562 human chronic myeloid leukemia cells are maintained in RPMI1640 medium supplemented with 10% fetal calf serum and 2 mM glutamine at 37° C. in a humidified atmosphere containing 5% CO2 and are incubated with a specified dose of drug for one hour at 37° C. in the dark. The incubation is terminated by centrifugation (5 min, 300 g) and the cells are washed once with drug-free medium. Following the appropriate drug treatment, the cells are transferred to 96-well microtiter plates (10^4 cells per well, 8 wells per sample). Plates are then kept in the dark at 37° C. in a humidified atmosphere containing 5% CO2. The assay is based on the ability of viable cells to reduce a yellow soluble tetrazolium salt, 3-(4,5-dimethylthiazol-2-yl)-2,5-diphenyl-2H-tetrazolium bromide (MTT, Aldrich-Sigma), to an insoluble purple formazan precipitate. Following incubation of the plates for four days (to allow control cells to increase in number by approximately 10 fold), 20 μL of MTT solution (5 mg/ml in phosphate-buffered saline) is added to each well and the plates further incubated for five hours. […] The optical density is then read at a wavelength of 550 nm on a […]™ (Titertek Labsystems, Finland) ELISA plate reader, and a dose-response curve is constructed. […]

[3] = system: MCF-7 human mammary cells; test: Cellular uptake and nuclear incorporation, confocal microscopy; format: cell-based; conditions: for nuclear fluorescence: highest drug concentrations, exposure time 24 hour; for nuclear uptake: 200 μM over 24 hour; for time to cellular uptake / detection: MCF-7 cells
Method: Cellular uptake and nuclear incorporation of drug into MCF-7 human mammary cells was visualized using confocal microscopy. Conjugates GWL 77, GWL78, GWL 79, GWL 80 and GWL 81 were prepared in DMSO at 20 mM and diluted in RPMI to the appropriate concentration. Freshly harvested MCF7 cells at 5×10^4 cells/ml were placed in 200 μl of complete RPMI1640 (containing 10% FCS) into the wells of 8-well chambered cover-glasses. Cells were left overnight to adhere at 37° C. […] At 1, 5 and 24 hours after addition of conjugates, the cells were examined using a Nikon TE2000 with UV filter set and viewed under oil immersion with the x63 objective lens.

[4] = differential cleavage analysis, compared with GWL 79

| Compound | footprint shape at position H (footnote 1) [1] | footprint shape at position J (footnote 2) [1] | pIC50 [2] | nuclear fluorescence [3] | footprint at position G ([1]; differential cleavage analysis) | pIC50 ([1]; read-out: DNase IC50 (concentration of conjugate providing 50% inhibition of DNase I-mediated cleavage), site 5'-62CAATACACA70-3', estimated by eye from footprint images) | nuclear uptake [3] | time to cellular uptake / detection [3] [h] | apparent binding affinity relative to GWL 79 ([1]; C11 versus GWL 79) | binding at positions K and L [1, 4] | footprints at positions D, M and G [1, 4] |
| --- | --- | --- | --- | --- | --- | --- | --- | --- | --- | --- | --- |
| COC(=O)c1cc(NC(=O)c2cc(NC(=O)c3cc(NC(=O)c4cc(NC(=O)c5cc(NC(=O)c6cc(NC(=O)CCCOc7cc8c(cc7OC)C(=O)N7CCC[C@H]7C=N8)cn6C)cn5C)cn4C)cn3C)cn2C)cn1C [GWL 82, (11aS) methyl 4-{[4-({4-[(4-{[4-({4-[4-(7-methoxy-5-oxo-2,3,5,11a-tetrahydro-5H-pyrrolo[2,1-c][1,4]benzodiazepine-8-yloxy)-butyrylamino]-1-methyl-1H-pyrrole-2-carbonyl]-amino)-1-methyl-1H-pyrrole-2-carbonyl]-amino}-1-methyl-1H-pyrrole-2-carbonyl)-amino]-1-methyl-1H-pyrrole-2-carbonyl}-amino)-1-methyl-1H-pyrrole-2-carbonyl]-amino}-1-methyl-1H-pyrrole-2-carboxylate] | ^127, 29, 31 show evidence of two closely juxtaposed footprints at this position | ^227, 29, 31 show evidence of two closely juxtaposed footprints at this position | 7.49 | more diffuse throughout the cell | – | – | – | – | – | – | – |
| COC(=O)c1cc(NC(=O)CCCOc2cc3c(cc2OC)C(=O)N2CCC[C@H]2C=N3)cn1C [GWL 77, (11aS) methyl 4-[4-(7-methoxy-5-oxo-2,3,5,11a-tetrahydro-5H-pyrrolo[2,1-c][1,4]benzodiazepine-8-yloxy)-butyrylamino]-1-methyl-1H-pyrrole-2-carboxylate] | – | – | 7.29 | strong nuclear fluorescence | footprinted | ≤ 5.00 | clear nuclear uptake | < 1 | – | – | – |
| COC(=O)c1cc(NC(=O)c2cc(NC(=O)CCCOc3cc4c(cc3OC)C(=O)N3CCC[C@H]3C=N4)cn2C)cn1C [GWL 78, (11aS) methyl 4-({4-[4-(7-methoxy-5-oxo-2,3,5,11a-tetrahydro-5H-pyrrolo[2,1-c][1,4]benzodiazepine-8-yloxy)-butyrylamino]-1-methyl-1H-pyrrole-2-carbonyl}-amino)-1-methyl-1H-pyrrole-2-carboxylate] | – | – | – | strong nuclear fluorescence | footprinted | – | clear nuclear uptake | 3 | – | – | – |
| COC(=O)c1cc(NC(=O)c2cc(NC(=O)c3cc(NC(=O)c4cc(NC(=O)c5cc(NC(=O)CCCOc6cc7c(cc6OC)C(=O)N6CCC[C@H]6C=N7)cn5C)cn4C)cn3C)cn2C)cn1C [GWL 81, (11aS) methyl 4-({4-[(4-{[4-({4-[4-(7-methoxy-5-oxo-2,3,5,11a-tetrahydro-5H-pyrrolo[2,1-c][1,4]benzodiazepine-8-yloxy)-butyrylamino]-1-methyl-1H-pyrrole-2-carbonyl]-amino)-1-methyl-1H-pyrrole-2-carbonyl]-amino}-1-methyl-1H-pyrrole-2-carbonyl)-amino]-1-methyl-1H-pyrrole-2-carbonyl}-amino)-1-methyl-1H-pyrrole-2-carboxylate] | ^127, 29, 31 show evidence of two closely juxtaposed footprints at this position | ^227, 29, 31 show evidence of two closely juxtaposed footprints at this position | – | more diffuse throughout the cell | footprinted | – | – | – | – | – | – |
| COC(=O)c1cc(NC(=O)c2cc(NC(=O)c3cc(NC(=O)c4cc(NC(=O)CCCOc5cc6c(cc5OC)C(=O)N5CCC[C@H]5C=N6)cn4C)cn3C)cn2C)cn1C [GWL 80, (11aS) methyl 4-[(4-{[4-({4-[4-(7-methoxy-5-oxo-2,3,5,11a-tetrahydro-5H-pyrrolo[2,1-c][1,4]benzodiazepine-8-yloxy)-butyrylamino]-1-methyl-1H-pyrrole-2-carbonyl]-amino)-1-methyl-1H-pyrrole-2-carbonyl]-amino}-1-methyl-1H-pyrrole-2-carbonyl)-amino]-1-methyl-1H-pyrrole-2-carboxylate] | ^127, 29, 31 show evidence of two closely juxtaposed footprints at this position | ^227, 29, 31 show evidence of two closely juxtaposed footprints at this position | – | more diffuse throughout the cell | footprinted | – | – | – | – | – | – |
| COC(=O)c1cc(NC(=O)c2cc(NC(=O)c3cc(NC(=O)CCOc4cc5c(cc4OC)C(=O)N4CCC[C@H]4C=N5)cn3C)cn2C)cn1C [C11, reference compound] | – | – | – | – | – | – | – | – | 30-100 fold | much weaker binding | lack of footprints |
| COC(=O)c1cc(NC(=O)c2cc(NC(=O)c3cc(NC(=O)CCCOc4cc5c(cc4OC)C(=O)N4CCC[C@H]4C=N5)cn3C)cn2C)cn1C [GWL 79, (11aS) methyl 4-{[4-({4-[4-(7-methoxy-5-oxo-2,3,5,11a-tetrahydro-5H-pyrrolo[2,1-c][1,4]benzodiazepine-8-yloxy)-butyrylamino]-1-methyl-1H-pyrrole-2-carbonyl]-amino)-1-methyl-1H-pyrrole-2-carbonyl]-amino}-1-methyl-1H-pyrrole-2-carboxylate] | – | – | – | strong nuclear fluorescence | – | – | clear nuclear uptake | 3 | – | – | – |
